Experimental data reported in article PMC10762035, “Molecular basis of human trace amine-associated receptor 1 activation” (Nature Communications, 2024).
Where a chain is given by its changes, count along the chain named. Values joined by “and” are separate entries in the source; they are usually repeats but may differ in a detail not shown here. Equal values may be shown once.

Columns and labels:
Assay type in all cases: cell-based
[1] = target: T1, β2AR-Nterm-hTA1-F112^3.41W (CryoEM Construct) (Homo sapiens, UniProt Q96RJ0, F112W); experiment: GloSensor cAMP accumulation assay, cryoEM construct;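 note: cells transiently co-transfected with the receptor construct and GloSensor cAMP biosensor, luminescence read after 30 min compound exposure at room temperature in the dark as cAMP accumulation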;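 for Normalized Luminescence Counts (N=2): normalized to the maximum response of β-PEA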
T1 construct: FLAG (N); 10xHis (N); TEV protease site (N); expressed in transfected cells; host or cells: HEK293T

hTA1 C96S = target: T2, hTA1 C96S (Homo sapiens, UniProt Q96RJ0, C96S); experiment: GloSensor cAMP accumulation assay, C96S mutant; conditions: log[Compound]
T2 construct: expressed in transfected cells; host or cells: HEK293T
T2 sequence (Q96RJ0 1-339 C96S): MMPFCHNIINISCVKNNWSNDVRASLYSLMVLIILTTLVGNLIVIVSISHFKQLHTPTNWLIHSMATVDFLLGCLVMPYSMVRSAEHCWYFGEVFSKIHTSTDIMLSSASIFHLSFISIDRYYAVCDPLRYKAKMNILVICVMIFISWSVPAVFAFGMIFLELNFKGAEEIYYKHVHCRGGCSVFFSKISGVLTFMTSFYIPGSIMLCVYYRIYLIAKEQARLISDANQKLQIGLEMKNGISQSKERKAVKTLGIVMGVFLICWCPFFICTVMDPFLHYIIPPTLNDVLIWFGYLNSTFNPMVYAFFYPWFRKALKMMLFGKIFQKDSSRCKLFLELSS

hTA1 W264F = target: T3, hTA1 W264F (Homo sapiens, UniProt Q96RJ0, W264F); experiment: GloSensor cAMP accumulation assay, W264F mutant;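 note: cells transiently transfected with receptor plus GloSensor, luminescence read 30 min after agonist addition at room temperature, concentration-response curves fitted by log(agonist) vs response regression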
T3 construct: expressed in transfected cells; host or cells: HEK293T
T3 sequence (Q96RJ0 1-339 W264F): T2 sequence (Q96RJ0 1-339 C96S) with S96C, W264F

hTA1 I290Y = target: T4, hTA1 I290Y (Homo sapiens, UniProt Q96RJ0, I290Y); experiment: GloSensor cAMP accumulation assay, I290Y mutant; conditions: for cAMP accumulation response, normalized (concentration-response source data, single replicate values): hTA1 I290Y (N=3), log[Compound];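 for cAMP accumulation response, normalized (concentration-response source data, single replicate values): normalized to the maximum response of β-PEA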
T4 construct: expressed in transfected cells; host or cells: HEK293T
T4 sequence (Q96RJ0 1-339 I290Y): T2 sequence (Q96RJ0 1-339 C96S) with S96C, I290Y

hTA1 F195T = target: T5, hTA1 F195T (Homo sapiens, UniProt Q96RJ0, F195T); experiment: GloSensor cAMP accumulation assay, F195T mutant;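 note: cells transiently co-expressing HA-FLAG-tagged hTA1 and the GloSensor cAMP biosensor, luminescence read 30 min after agonist addition at room temperature, concentration-response fitted by nonlinear regression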
T5 construct: expressed in transfected cells; host or cells: HEK293T
T5 sequence (Q96RJ0 1-339 F195T): T2 sequence (Q96RJ0 1-339 C96S) with S96C, F195T

hTA1 T271N = target: T6, hTA1 T271N (Homo sapiens, UniProt Q96RJ0, T271N); experiment: GloSensor cAMP accumulation assay, T271N mutant
T6 construct: expressed in transfected cells; host or cells: HEK293T
T6 sequence (Q96RJ0 1-339 T271N): T2 sequence (Q96RJ0 1-339 C96S) with S96C, T271N

[2] = Cryo EM Construct, mean of each independent experiment (3 replicates)

T1 sequence (Q96RJ0 with tags, fused parts or gaps F112W): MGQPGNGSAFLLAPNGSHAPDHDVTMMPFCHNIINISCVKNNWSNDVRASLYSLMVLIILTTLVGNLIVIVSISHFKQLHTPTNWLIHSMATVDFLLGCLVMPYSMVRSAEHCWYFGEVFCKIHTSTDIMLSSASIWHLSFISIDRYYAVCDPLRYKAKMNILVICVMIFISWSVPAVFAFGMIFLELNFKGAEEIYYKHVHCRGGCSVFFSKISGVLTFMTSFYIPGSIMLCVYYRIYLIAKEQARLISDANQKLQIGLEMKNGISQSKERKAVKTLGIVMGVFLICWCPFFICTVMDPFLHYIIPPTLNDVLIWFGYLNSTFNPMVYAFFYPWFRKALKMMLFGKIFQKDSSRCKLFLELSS

## NCCc1ccc(Oc2ccc(O)cc2)c(I)c1 [T1AM, 3-iodothyronamine]
[1]; Cryo EM Construct minus WT average
  ΔEmax values (each mutant value - WT average), Mean: 57.4068 and 36.3707
[1]; [2]
  Emax values, Mean: -0.05087 and 0.4178
  pEC50 values, Mean: 6.078 and 6.547
[1]; CryoEM Construct, log[Compound], M = -5, single replicates
  Normalized Luminescence Counts (N=2): 123.162 and 140.16 and 121.528 and 161.688
[1]; CryoEM Construct, n=2
  Span ± SEM (Emax normalized to β-PEA): 115.44
  pEC50 ± SEM: 6.3 ± 0.04
[1]; CryoEM Construct, n=2, read-out: EC50
  EC50: 491 nM
hTA1 C96S; C96S, M = -5, single replicates (N=2)
  Normalized Luminescence Counts: -4.527 and 0.08646 and -0.5726 and 12.7948 and 5.048 and 3.112
hTA1 C96S; C96S, M = -5.522, single replicates (N=2)
  Normalized Luminescence Counts: -1.232 and -3.209 (2×) and 24.4145 and 1.175 and -2.698
hTA1 C96S; C96S, M = -6, single replicates (N=2)
  Normalized Luminescence Counts: -1.891 and -5.845 and -6.504 and 30.2243 and -2.698 and -0.7614
hTA1 C96S; C96S, M = -6.522, single replicates (N=2)
  Normalized Luminescence Counts: -5.186 (2×) and -5.845 and -10.4444 and -0.7614 and -2.698
hTA1 C96S; C96S, M = -7, single replicates (N=2)
  Normalized Luminescence Counts: -3.209 and -6.504 and -1.891 and -14.3176 and -8.508 and -10.4444
hTA1 C96S; C96S, M = -7.522, single replicates (N=2)
  Normalized Luminescence Counts: -1.891 and -5.186 (2×) and -4.6346 and 3.112 and -6.571
hTA1 C96S; C96S, M = -8, single replicates (N=2)
  Normalized Luminescence Counts: 0.08646 and -3.868 and -1.232 and 14.7315 and 18.6047 (2×)
hTA1 C96S; C96S, M = -8.522, single replicates (N=2)
  Normalized Luminescence Counts: -1.891 and -1.232 (2×) and 14.7315 (2×) and 8.922
hTA1 C96S; C96S, M = -9, single replicates (N=2)
  Normalized Luminescence Counts: -1.232 and -1.891 (2×) and 30.2243 and 37.9707 and 3.112
hTA1 C96S; C96S, M = -9.522, single replicates (N=2)
  Normalized Luminescence Counts: -3.209 and -1.891 and -1.232 and 16.6681 and 5.048 and 20.5413
hTA1 C96S; C96S, M = -10, single replicates (N=2)
  Normalized Luminescence Counts: 2.064 and -0.5726 and 0.7455 and -0.7614 and -4.6346 and -6.571
hTA1 C96S; C96S, M = -10.522, single replicates (N=2)
  Normalized Luminescence Counts: -1.891 and -3.868 and 0.08646 and 1.175 and -6.571 and -4.6346
hTA1 C96S; C96S, M = -11, single replicates (N=2)
  Normalized Luminescence Counts: 1.4045 and 0.7455 (2×) and 34.0975 (2×) and 14.7315
hTA1 C96S; C96S, M = -11.522, single replicates (N=2)
  Normalized Luminescence Counts: 1.4045 (2×) and -0.5726 and 24.4145
hTA1 C96S; M = -11.522, single replicates, mutant block above C178S
  Normalized Luminescence Counts: -0.4742 (2×) and -0.6563 and 0.6424 and -0.05214 and -0.3727
hTA1 C96S; M = -12, single replicates, mutant block above C178S
  Normalized Luminescence Counts: -0.08731 (2×) and -0.5653 and 0.1081 and 0.001279 (2×)
hTA1 C96S; M = -12.522, single replicates, mutant block above C178S
  Normalized Luminescence Counts: -0.2011 and 0.5045 and -0.6791 and -0.1056 and 0.9095 and -0.05214
hTA1 W264F; W246F mutant (so in the source) minus WT average
  ΔEmax values (each mutant value - WT average): -30.8369
hTA1 W264F; W246F mutant (so in the source), β-PEA = 100, each line an independent experiment, 3 replicates
  Emax values, Mean: 17.7915
hTA1 W264F; W264F, n=2
  Span ± SEM (Emax normalized to β-PEA): 28.7 ± 10.91
  pEC50 ± SEM: 4.95 ± 0.97
hTA1 W264F; W264F, n=2, read-out: EC50
  EC50: 11300 nM
hTA1 I290Y; I290Y
  Span ± SEM (Emax normalized to β-PEA): 68.94 ± 4.39
  pEC50 ± SEM: 6.05 ± 0.08
hTA1 I290Y; I290Y, read-out: EC50
  EC50: 889 nM
hTA1 I290Y; I290Y, single experiments (3 replicates each)
  pEC50 values, Mean: 6.088 and 6.268 and 5.798
hTA1 I290Y; I290Y, single experiments (3 replicates each), β-PEA = 100
  Emax values, Mean: 77.2061 and 62.2509 and 67.3555
hTA1 I290Y; M = -5
  cAMP accumulation response, normalized (concentration-response source data, single replicate values): 82.7627 and 66.4498 and 84.9173 and 54.2232 and 60.0862 and 58.254 and 61.3384 and 53.4426 and 63.5944
hTA1 I290Y; M = -5.522
  cAMP accumulation response, normalized (concentration-response source data, single replicate values): 50.7524 and 44.2888 and 57.216 and 57.1547 and 52.391 and 42.1307 and 35.395 and 42.1629 and 29.7552
hTA1 I290Y; M = -6
  cAMP accumulation response, normalized (concentration-response source data, single replicate values): 45.5199 and 34.7472 and 39.6719 and 40.665 and 36.2677 and 35.5349 and 24.1153 and 32.0111 and 19.6034
hTA1 I290Y; M = -6.522
  cAMP accumulation response, normalized (concentration-response source data, single replicate values): 32.5927 and 17.8187 and 23.9745 and 21.6102 and 23.076 and 24.1753 and 17.3474 and 11.7076 (2×)
hTA1 I290Y; M = -7
  cAMP accumulation response, normalized (concentration-response source data, single replicate values): 19.6655 and 9.201 and 18.4343 and 8.4185 and 1.456 and 10.9836 and 6.068 and 3.812 and 4.9397
hTA1 I290Y; M = -7.522
  cAMP accumulation response, normalized (concentration-response source data, single replicate values): 3.968 and -2.188 and 2.737 and 2.189 and -3.307 and -4.04 and -0.7002 and 0.4278 and -1.828
hTA1 I290Y; M = -8
  cAMP accumulation response, normalized (concentration-response source data, single replicate values): 2.429 and 0.2746 and -0.0332 and -1.842 and -5.873 and -3.674 and -2.956 and -4.0841 and -0.7002
hTA1 I290Y; M = -8.522
  cAMP accumulation response, normalized (concentration-response source data, single replicate values): 0.2746 and -3.111 and -0.341 and -6.605 (2×) and -5.873 and -4.0841 (2×) and -5.212
hTA1 I290Y; M = -9
  cAMP accumulation response, normalized (concentration-response source data, single replicate values): -1.88 and -2.803 and -1.572 and 0.7233 and -0.376 and -4.773 and -6.34 and -4.0841 (2×)
hTA1 I290Y; M = -9.522
  cAMP accumulation response, normalized (concentration-response source data, single replicate values): -1.88 and -3.7267 and -2.188 and -6.605 and -1.109 and -4.407 and -4.0841 (2×) and -6.34
hTA1 I290Y; M = -10
  cAMP accumulation response, normalized (concentration-response source data, single replicate values): -0.0332 and -2.496 and -1.572 and -6.605 and -6.972 and 4.021 and -2.956 (2×) and -6.34
hTA1 I290Y; M = -10.522
  cAMP accumulation response, normalized (concentration-response source data, single replicate values): -1.572
hTA1 F195T; F195T mutant minus WT average, Figure 5B
  ΔpEC50 values (each mutant value - WT average), Mean: -0.7125 and -0.7788
hTA1 F195T; F195T mutant, Figure 5B, each row one independent experiment (3 replicates)
  pEC50 values, Mean: 5.417 and 5.35
hTA1 F195T; F195T mutant, Figure 5B, β-PEA = 100, each row one independent experiment (3 replicates)
  Emax values, Mean: 72.2975 and 58.7221
hTA1 F195T; F195T, n=2
  Span ± SEM (Emax normalized to β-PEA): 65.51 ± 6.79
  pEC50 ± SEM: 6.67 ± 1.32
hTA1 F195T; F195T, n=2, read-out: EC50
  EC50: 213 nM
hTA1 T271N; T271N mutant minus WT average, Figure 5B
  ΔpEC50 values (each mutant value - WT average), Mean: 0.1858 and 0.05902
hTA1 T271N; T271N mutant, Figure 5B, each row one independent experiment (3 replicates)
  pEC50 values, Mean: 6.315 and 6.188
hTA1 T271N; T271N mutant, Figure 5B, β-PEA = 100, each row one independent experiment (3 replicates)
  Emax values, Mean: 147.043 and 92.5588
hTA1 T271N; T271N, n=2
  pEC50 ± SEM: 6.25 ± 0.03
hTA1 T271N; T271N, n=2, read-out: EC50
  EC50: 560 nM
hTA1 T271N; T271N, relative to β-PEA
  Emax: 119.8%
